Data set [1] has as its system Candida albicans biofilms. Description: microbe, parasite or virus in culture.
For data set [2], the system named is C. albicans biofilms on serum pre-incubated polyurethane catheters. The experiment in a line: In vitro biofilm inhibition assay on catheters. The conditions noted are these: 24 h treatment; CFU. Type of data set: cell-based, Candida albicans. The protocol:
Polyurethane catheters, overnight incubated in bovine serum, were infected with C. albicans or C. glabrata cells (5 × 10^4 cells/mL) in RPMI medium (Kucharikova et al., [2015]). […] All experiments were performed in quadruplicate with at least three biological repeats.

For the next data set, the system named is Candida krusei biofilms. The experiment in a line: In vitro biofilm inhibition assay in microtiter plates (XTT quantification). The following applies: Pichia kudriavzevii, caspofungin alone, n = 3, read-out: BIC50 (CASPO) ± SEM. Type of data set: cell-based.
For data set [3], the system named is planktonic Candida albicans fks1 mutant cells. Description: Flow cytometry: HsLin06_18-FITC uptake and membrane permeabilization (PI), fks1 mutant. Type of data set: cell-based. The conditions noted are these: caspofungin (0.5 μM) alone; 40 minutes; n = 3. The protocol: (§1) Membrane permeabilization and HsLin06_18 internalization were determined via flow cytometric analysis on planktonic C. albicans SC5314 WT cells. Exponentially growing cells were exposed to caspofungin ([…]), HsLin06_18-FITC (4.6 μM) or its combination (as described in the material and methods section “fungicidal activity assay”), and to propidium iodide (PI) (2 μg/mL), after which they were subjected to flow cytometry on a BD Influx™ cell sorter. Per treatment, 10,000 cells were monitored for fluorescence at 530/40 nm (FL2_λex = 488 nm) and 610/20 nm (FL11_ λex = 561 nm) for the detection of HsLin06_18-FITC internalization (FITC+) and membrane permeabilization (PI+), respectively. Data from cells treated with 4.6 μM HsLin06_18-FITC were used as background signal.
[picture] Supplementary Figure S3: HsLin06_18-FITC uptake and membrane permeabilization in planktonic Candida albicans WT and fks1 mutant cells, determined via flow cytometry. Cells were treated for 40 minutes with 0.5 µM caspofungin and/or […] HsLin06_18-FITC (HsL-F) and 2 µg/mL propidium iodide (PI). […]

The subject of data set [4] is planktonic C. albicans SC5314 WT cells. The experiment in a line: Flow cytometry: HsLin06_18-FITC uptake and membrane permeabilization (PI). Type of data set: cell-based, Candida albicans. The following applies: 0.01 μM caspofungin alone; vs t0. The protocol: as §1
Data set [5] concerns Candida glabrata biofilms. The experiment in a line: In vitro biofilm inhibition assay in microtiter plates (XTT quantification). Type of data set: cell-based. The following applies: Nakaseomyces glabratus, caspofungin alone, n = 3, read-out: BIC50 (CASPO) ± SEM.
Data set [6] relates to Candida dubliniensis biofilms. Described as above. The conditions noted are these: caspofungin alone, n = 3, read-out: BIC50 (CASPO) ± SEM. Type of data set: cell-based.
Data set [7] has as its system C. albicans biofilms on catheter pieces. The experiment in a line: In vivo biofilm inhibition assay, subcutaneous rat catheter model. The following applies: intravenously (IV) administered, once daily for 7 days; CFU.
Description: All animal experiments were in accordance with the KU Leuven animal care guidelines and approved by the Ethical Committee of the KU Leuven (P069/2016). In vivo C. albicans biofilms were formed inside catheter pieces in immunosuppressed female Sprague–Dawley rats (200 g) as described previously (Ricicova et al., [2010]). Briefly, serum pre-incubated catheters were infected with C. albicans cells (5 × 10^4 cells/mL) prepared in RPMI medium during the adhesion period (90 min at 37°C). After a washing step, 9 catheter pieces were implanted into the back area of one rat. Inhibition of in vivo C. albicans biofilm formation was initiated immediately after the implant. […] Catheters were explanted from euthanized animals and the number of cells per individual biofilm was determined by CFU (Ricicova et al., [2010]). In vivo experiments were performed once (in total three animals/group).
The test system of data set [8] is C. albicans caspofungin-resistant mutant M177 (fks1 mutant) biofilms. Description: microbe, parasite or virus in culture. The conditions noted are these: Candida albicans, read-out: BIC50 (CASPO) ± SEM.
Data set [9] concerns Candida albicans biofilms. Description: In vitro biofilm inhibition assay in microtiter plates (XTT quantification). Type of data set: cell-based. The following applies: caspofungin alone, n = 3, read-out: BIC50 (CASPO) ± SEM.
Data set [10] concerns C. albicans SC5314 WT planktonic cells. The experiment in a line: Fungicidal activity assay (plating, CFU) on planktonic cells. Type of data set: cell-based, Candida albicans. The following applies: caspofungin alone, concentrations up to 50 μM, one representative experiment out of 2. On the procedure:
[…] Both at the start and at all measuring points, surviving yeast cells was determined via plating assays. In a plating assay, 10-fold dilution series of yeast cells in PBS were prepared, after which 100 μL was plated on YPD plates. After 1 day of incubation at 37°C, the number of colony forming units (CFU) was counted and cell death was calculated relative to time zero (t0). MFC50 values, indicating the minimum fungicidal concentration resulting in 50% cell death, were determined. In parallel with the plating assay, confocal microscopic or flow cytometric analysis were performed on the samples.

The subject of data set [11] is C. albicans caspofungin-resistant mutant M177 (fks1 mutant) biofilms. The conditions noted are these: fks1 mut.
A short description of data set [12]: HsLin06_18 cytotoxicity assay (MTT). Type of data set: cell-based. The following applies: human, 24 h treatment, relative to 1% DMSO control, read-out: EC50 (half maximal effective concentration), cytotoxicity. On the procedure:
Drug cytotoxicity testing was performed as described previously (Vriens et al., [2015b]). Briefly, human hepatoma (HepG2) cells were treated for 24 h with caspofungin, HsLin06_18, its combination or control treatment (1% DMSO). Cell viability was determined by MTT staining (Roche Diagnostics, Germany) and expressed relative to the control treatment. All experiments were performed in quadruplicate with at least three biological repeats.

The test system of data set [13] is Candida albicans biofilms. The conditions noted are these: Caspofungin + HsLin; microtiter plate; means for n ≥ 2.
Another data set concerns candidiasis. The conditions noted are these: administered systemically at 7 or 14 mg/kg/day; ref Tavares et al., 2008; cited from earlier work.
Setting [14] is: read-out: BIC50 (echinocandin) ± SEM.

Where two headings read alike, the source gives them in different places. Numbered stars: 1 amine (or outer) side, 2 acyl side, 3 side chain; on linkers, the order of the positions; unused ones are H or OH. Bridge positions count the residues as written; N and C are the ends. Square brackets hold non-standard residues; d marks the D form. Ends that are not written are not given here. Peptide text beside a SMILES is read from it. * marks the point of attachment. hTyr(3S-OH,4S-OH,3'-OSO3H) = N[C@H](C(=O)O)[C@H](O)[C@@H](O)c1ccc(O)c(OS(=O)(=O)O)c1; pTerphenylCO(4''-OnC5H11) = CCCCCOc1ccc(-c2ccc(-c3ccc(C(=O)*)cc3)cc2)cc1; Orn(4R-OH,5R-OH) = O=C([C@H](C[C@@H](O)[C@@H](O)N[*:3])N[*:1])[*:2]; hTyr(3S-OH,4S-OH) = N[C@H](C(=O)O)[C@H](O)[C@@H](O)c1ccc(O)cc1; Pro(3S-OH,4S-Me) = C[C@H]1CN[C@H](C(=O)O)[C@H]1O; X1 = CCCCCOc1ccc(-c2cc(-c3ccc(C(=O)*)cc3)no2)cc1; Gln(3R-OH) = NC(=O)C[C@@H](O)[C@H](N)C(=O)O; Hyp = O=C(O)[C@@H]1C[C@@H](O)CN1; Abu = CC[C@H](N)C(=O)O Bounds are passed on as bounds.

The text below walks through data of paper PMC5655031, “A Linear 19-Mer Plant Defensin-Derived Peptide Acts Synergistically with Caspofungin against Candida albicans Biofilms” (Frontiers in Microbiology, 2017).

In the case of `CCCCCOc1ccc(-c2ccc(-c3ccc(C(=O)N[C@H]4C[C@@H](O)[C@@H](O)NC(=O)[C@@H]5[C@@H](O)[C@@H](C)CN5C(=O)[C@H]([C@@H](C)O)NC(=O)[C@H]([C@H](O)[C@@H](O)c5ccc(O)cc5)NC(=O)[C@@H]5C[C@@H](O)CN5C(=O)[C@H]([C@@H](C)O)NC4=O)cc3)cc2)cc1` [Anidulafungin] ({pTerphenylCO(4''-OnC5H11)}-[Orn(4R-OH,5R-OH)]T[Hyp][hTyr(3S-OH,4S-OH)]T[Pro(3S-OH,4S-Me)]; lactam 1-C), in [1] (setting [14]), the IC50 came out at 0.93 ± 0.12 µM.

Consider `CC[C@H](C)C[C@H](C)CCCCCCCCC(=O)N[C@H]1C[C@@H](O)[C@@H](NCCN)NC(=O)[C@@H]2[C@@H](O)CCN2C(=O)[C@H]([C@H](O)CCN)NC(=O)[C@H]([C@H](O)[C@@H](O)c2ccc(O)cc2)NC(=O)[C@@H]2C[C@@H](O)CN2C(=O)[C@H]([C@@H](C)O)NC1=O` [Caspofungin], for which the “sub-lethal dose in the in vitro catheter setup” value in [2] was found to be 0.4 µM. Further, the IC50 with Candida krusei biofilms worked out at 1.09 ± 0.012 µM; in data set [5], 1 ± 0.115 µM; in [6] it was 0.92 ± 0.017 µM; in data set [8], 7.4 ± 1.36 µM; in data set [9], 0.7 ± 0.092 µM; in data set [1] (read-out: BIC50 (CASPO) ± SEM), 0.83 ± 0.096 µM. Also, the IC50 in [1] (setting [14]) was found to be 0.96 ± 0.04 µM. The “cells with permeabilized membranes” value in data set [3] is listed as below 0.2%. Further, the “population of cells with compromised membranes” value in data set [4] is “not significantly increased after 40 min”. For the same compound, the “sub-lethal dose in the subcutaneous rat catheter model” value in [7] is reported as 0.25 mg/kg/day. In addition, the cell death in [10] was found to be 30%.

Consider `CC[C@H](NC(=O)[C@H](C)NC(=O)CNC(=O)CNC(=O)[C@H](Cc1ccc(O)cc1)NC(=O)[C@H](C)NC(=O)[C@@H](N)Cc1ccccc1)C(=O)N[C@@H](Cc1c[nH]cn1)C(=O)N[C@@H](Cc1ccc(O)cc1)C(=O)N[C@@H](CCC(N)=O)C(=O)N[C@@H](Cc1ccccc1)C(=O)N1CCC[C@H]1C(=O)N[C@@H](CO)C(=O)N[C@H](C(=O)N[C@@H](CCCCN)C(=O)N[C@@H](CC)C(=O)N[C@@H](Cc1ccccc1)C(=O)N[C@@H](CC)C(=O)N[C@@H](CCCCN)C(=O)O)C(C)C` [HsLin06_18] (H-FAYGGA[Abu]HYQFPSVK[Abu]F[Abu]K-OH), for which the FICI in [11] (caspofungin + 2.5 µM HsLin06_18) and in data set [11] (caspofungin + 5 µM HsLin06_18) was below 0.5 throughout. Moreover, in [12], the EC50 at 24 h was above 50 µM.

As to `CCCCCOc1ccc(-c2cc(-c3ccc(C(=O)N[C@H]4C[C@@H](O)[C@@H](O)NC(=O)[C@@H]5[C@@H](O)[C@@H](C)CN5C(=O)[C@H]([C@H](O)CC(N)=O)NC(=O)[C@H]([C@H](O)[C@@H](O)c5ccc(O)c(OS(=O)(=O)O)c5)NC(=O)[C@@H]5C[C@@H](O)CN5C(=O)[C@H]([C@@H](C)O)NC4=O)cc3)no2)cc1` [Micafungin] (X1-[Orn(4R-OH,5R-OH)]T[Hyp][hTyr(3S-OH,4S-OH,3'-OSO3H)][Gln(3R-OH)][Pro(3S-OH,4S-Me)]; lactam 1-C), the IC50 in data set [1] (setting [14]) is 0.4 ± 0.088 µM.

Turning to “FAYGGACHYQFPSVKCFXK (disulfide) [HsLin06_18_22]”, the “Fold change (reduction of the BIC50 of caspofungin by co-incubation with HsLin06_18 or HsLin06_18-variants)” value in data set [13] was 1.77.

Take “FAYGGACHYQFPSVKXFCK (disulfide) [HsLin06_18_20]”: the “Fold change (reduction of the BIC50 of caspofungin by co-incubation with HsLin06_18 or HsLin06_18-variants)” value in data set [13] turned out to be 1.97.

With “RsAFP2: plant defensin (QKLCQRPSGTWSGVCGNNNACKNQCIRLEKARHGSCNYVFPAHKCICYFPC; ends and bridges not checked; cysteine pairing not given here; UniProt P30230 30-80, looked up)”, the “in vivo efficacy against candidiasis” value with candidiasis was “prophylactically effective”.
